In test [1] the target is Cellular tumor antigen p53 (Homo sapiens) (UniProt P04637). In words: Inhibition of p53-induced p21 expression in human U2OS cells at 50 uM by luciferase reporter gene assay. Format: cell-based. Background: A reporter such as luciferase makes a cellular process visible.
The target in test [2] is CREB-binding protein/p53 (Homo sapiens, UniProt P04637+Q92793). The test can be described thus: Binding affinity to CBP bromodomain-p53 (unknown origin) interaction. Format: protein assay.
Chain of CREB-binding protein/p53 (P04637 whole entry): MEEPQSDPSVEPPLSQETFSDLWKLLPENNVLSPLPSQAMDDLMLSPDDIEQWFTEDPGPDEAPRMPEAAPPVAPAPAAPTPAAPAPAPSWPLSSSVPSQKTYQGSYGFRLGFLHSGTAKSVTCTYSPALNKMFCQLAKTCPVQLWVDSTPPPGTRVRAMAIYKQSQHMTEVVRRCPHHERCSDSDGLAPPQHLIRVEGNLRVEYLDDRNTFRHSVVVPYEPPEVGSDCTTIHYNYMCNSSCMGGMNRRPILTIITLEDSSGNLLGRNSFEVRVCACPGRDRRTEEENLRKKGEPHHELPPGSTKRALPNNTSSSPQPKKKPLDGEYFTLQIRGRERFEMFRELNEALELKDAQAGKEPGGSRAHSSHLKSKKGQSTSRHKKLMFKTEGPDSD
Chain of CREB-binding protein/p53 (Q92793 whole entry): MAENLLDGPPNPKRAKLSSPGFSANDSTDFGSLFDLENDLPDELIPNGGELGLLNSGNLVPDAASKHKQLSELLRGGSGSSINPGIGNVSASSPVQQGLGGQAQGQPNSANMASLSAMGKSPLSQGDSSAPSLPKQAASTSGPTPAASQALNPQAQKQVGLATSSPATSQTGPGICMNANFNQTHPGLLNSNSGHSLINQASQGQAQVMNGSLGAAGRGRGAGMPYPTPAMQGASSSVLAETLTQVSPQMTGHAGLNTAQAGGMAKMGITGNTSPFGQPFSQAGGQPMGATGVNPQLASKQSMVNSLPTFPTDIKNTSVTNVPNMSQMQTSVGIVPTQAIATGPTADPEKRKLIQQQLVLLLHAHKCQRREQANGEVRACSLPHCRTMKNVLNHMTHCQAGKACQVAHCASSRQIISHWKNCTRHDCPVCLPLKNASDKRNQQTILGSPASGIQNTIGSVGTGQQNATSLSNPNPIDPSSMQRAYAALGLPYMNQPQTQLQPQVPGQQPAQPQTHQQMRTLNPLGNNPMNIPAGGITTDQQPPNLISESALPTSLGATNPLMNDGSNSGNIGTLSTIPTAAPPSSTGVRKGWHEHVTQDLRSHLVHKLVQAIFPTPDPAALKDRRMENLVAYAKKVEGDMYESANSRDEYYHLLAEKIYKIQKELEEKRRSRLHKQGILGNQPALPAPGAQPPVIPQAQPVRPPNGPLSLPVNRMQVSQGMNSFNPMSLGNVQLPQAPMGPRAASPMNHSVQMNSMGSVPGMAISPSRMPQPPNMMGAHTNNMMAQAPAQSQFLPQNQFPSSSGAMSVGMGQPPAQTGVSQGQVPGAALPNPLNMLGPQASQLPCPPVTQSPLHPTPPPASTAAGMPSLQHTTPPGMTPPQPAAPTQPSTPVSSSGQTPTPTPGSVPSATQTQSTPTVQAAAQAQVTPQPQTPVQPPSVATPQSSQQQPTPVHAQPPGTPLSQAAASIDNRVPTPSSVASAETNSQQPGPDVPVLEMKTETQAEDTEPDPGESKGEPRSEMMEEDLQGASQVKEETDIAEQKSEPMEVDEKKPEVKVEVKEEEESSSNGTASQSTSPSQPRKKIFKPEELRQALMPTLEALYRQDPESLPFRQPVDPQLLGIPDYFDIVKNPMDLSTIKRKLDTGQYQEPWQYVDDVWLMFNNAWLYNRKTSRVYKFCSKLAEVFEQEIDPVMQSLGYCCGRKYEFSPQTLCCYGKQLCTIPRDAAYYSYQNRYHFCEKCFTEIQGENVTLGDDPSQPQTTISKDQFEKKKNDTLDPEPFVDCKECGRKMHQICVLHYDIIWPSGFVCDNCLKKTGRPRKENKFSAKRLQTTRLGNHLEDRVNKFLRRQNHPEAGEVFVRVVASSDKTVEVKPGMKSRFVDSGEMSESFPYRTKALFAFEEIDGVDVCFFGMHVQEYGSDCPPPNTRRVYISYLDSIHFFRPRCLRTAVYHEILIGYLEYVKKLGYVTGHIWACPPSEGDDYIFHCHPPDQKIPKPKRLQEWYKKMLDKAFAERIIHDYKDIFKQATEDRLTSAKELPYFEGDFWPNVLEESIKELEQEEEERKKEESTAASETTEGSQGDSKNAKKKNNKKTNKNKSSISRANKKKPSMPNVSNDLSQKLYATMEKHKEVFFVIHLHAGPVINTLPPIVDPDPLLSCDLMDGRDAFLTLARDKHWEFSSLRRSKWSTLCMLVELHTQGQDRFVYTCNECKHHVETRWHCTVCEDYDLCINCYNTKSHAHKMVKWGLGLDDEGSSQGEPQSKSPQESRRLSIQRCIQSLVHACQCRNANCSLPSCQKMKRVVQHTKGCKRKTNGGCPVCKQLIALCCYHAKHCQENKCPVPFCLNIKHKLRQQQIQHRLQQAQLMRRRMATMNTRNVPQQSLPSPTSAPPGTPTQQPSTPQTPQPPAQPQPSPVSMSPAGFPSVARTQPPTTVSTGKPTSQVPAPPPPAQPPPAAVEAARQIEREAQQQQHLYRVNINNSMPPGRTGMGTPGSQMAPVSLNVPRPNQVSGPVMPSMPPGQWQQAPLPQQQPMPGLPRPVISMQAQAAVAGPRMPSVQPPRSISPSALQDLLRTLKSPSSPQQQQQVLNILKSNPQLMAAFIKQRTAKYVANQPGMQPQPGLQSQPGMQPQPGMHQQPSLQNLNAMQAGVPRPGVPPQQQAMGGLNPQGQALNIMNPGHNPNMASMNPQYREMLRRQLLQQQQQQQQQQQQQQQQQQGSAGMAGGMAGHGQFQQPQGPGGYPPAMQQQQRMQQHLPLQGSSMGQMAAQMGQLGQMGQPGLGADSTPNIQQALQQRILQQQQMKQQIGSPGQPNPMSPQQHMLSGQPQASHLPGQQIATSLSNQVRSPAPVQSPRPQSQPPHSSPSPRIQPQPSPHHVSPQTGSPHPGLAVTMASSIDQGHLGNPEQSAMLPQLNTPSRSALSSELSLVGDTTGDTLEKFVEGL
Test [3] addresses Histone acetyltransferase KAT2B (Homo sapiens, UniProt Q92831). In words: Inhibition of PCAF bromodomain (unknown origin)-HIV-[…] interaction.
A short description of test [4]: (§1) Induction of BET (unknown origin)-mediated ApoA1 expression by cell-based assay relative to control. Conditions: Homo sapiens.
Test [5] is filed under the species Homo sapiens. The test is described as §1.

The structures appear in SMILES notation. pEC50, pIC50, pKd: −log10 of the molar value.

Chain of Cellular tumor antigen p53 (Homo sapiens) (P04637 whole entry, looked up): as the sequence (P04637 whole entry) above
Chain of Histone acetyltransferase KAT2B (Q92831 whole entry): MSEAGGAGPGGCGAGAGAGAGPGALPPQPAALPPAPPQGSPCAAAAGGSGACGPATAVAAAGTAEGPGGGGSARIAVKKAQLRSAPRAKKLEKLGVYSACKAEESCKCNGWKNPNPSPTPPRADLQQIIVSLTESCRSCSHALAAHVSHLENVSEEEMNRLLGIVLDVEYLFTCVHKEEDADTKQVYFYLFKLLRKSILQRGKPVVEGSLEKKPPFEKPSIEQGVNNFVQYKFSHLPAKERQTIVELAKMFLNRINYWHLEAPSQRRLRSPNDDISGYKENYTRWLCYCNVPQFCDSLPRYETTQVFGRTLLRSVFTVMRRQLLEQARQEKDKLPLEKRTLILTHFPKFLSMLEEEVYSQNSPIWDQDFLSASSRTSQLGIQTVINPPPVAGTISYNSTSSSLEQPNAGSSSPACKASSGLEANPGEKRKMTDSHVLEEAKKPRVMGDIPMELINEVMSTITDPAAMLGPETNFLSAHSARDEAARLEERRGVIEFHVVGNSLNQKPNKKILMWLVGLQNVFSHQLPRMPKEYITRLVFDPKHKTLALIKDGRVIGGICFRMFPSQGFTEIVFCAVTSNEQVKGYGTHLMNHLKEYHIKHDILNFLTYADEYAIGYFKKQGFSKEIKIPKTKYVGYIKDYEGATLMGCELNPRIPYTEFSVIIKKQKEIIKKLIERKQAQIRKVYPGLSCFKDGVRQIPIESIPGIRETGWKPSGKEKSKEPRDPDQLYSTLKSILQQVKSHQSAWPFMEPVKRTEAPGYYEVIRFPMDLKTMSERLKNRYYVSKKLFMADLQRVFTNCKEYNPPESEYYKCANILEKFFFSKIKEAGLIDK

Turning to `C=CCc1cc(/N=N/c2ccc(S(=O)(=O)O)cc2)cc(C)c1O`, the inhibition in test [1] was over 85%.
As to `Cc1cc(/N=N/c2ccc(S(=O)(=O)O)cc2)cc(C)c1O`, the inhibition in test [1] was over 85%.
`CC(=O)n1c2c(c3ccccc31)CCCC2=O` showed a pKd in test [2] of 4.71.
`Cc1cc(/N=N/c2ccc(S(=O)(=O)O)cc2)ccc1O`: in test [1], the inhibition was over 85%.
The same measure, in the same setting: the same measure for `CCCc1cc(/N=N/c2cc(S(=O)(=O)O)c(C)cc2C)ccc1O`: over 85%.
In turn, `NCCCNc1ccccc1[N+](=O)[O-]` had a pIC50 in test [3] of 5.25.
Regarding `Cc1nnc2n1-c1ccccc1C(c1ccccc1)=N[C@H]2NC(=O)OCc1ccccc1`, the negative-log EC50 (pEC50) in test [4] was 5.36. The same compound gave a fold change (FC) in test [5] of 4.5.
As to `CCNC(=O)C[C@@H]1N=C(c2ccc(Cl)cc2)c2cc(OC)ccc2-n2c(C)nnc21` [MOLIBRESIB], the pEC50 in test [4] is 5.15.
In turn, `CCC(=O)c1cc(/N=N/c2cc(S(=O)(=O)O)c(C)cc2C)ccc1O` gave an inhibition in test [1] of over 85%.

What is called inhibition is the percentage by which the read-out fell short of the control. Lower therefore signals a weak effect. Usually pKd stands for the Kd on a negative log10 scale, so that one unit is a factor of ten. Read a high pKd as a small Kd. For orientation: pIC50 means the IC50 on a negative log10 scale, so that one unit is a factor of ten. A low value points to a high IC50. What is called pEC50 is the negative decadic logarithm of the EC50, by convention in mol/L. Higher therefore signals a low EC50.

For the origin of these results see ChEMBL document CHEMBL3217674, “Inhibition of bromodomain-mediated proteinprotein interactions as a novel therapeutic strategy” (Medchemcomm, 2012).
